# Where two headings read alike, the source gives them in different places.
# Experiments:
# [1] = test system: C. albicans ATCC 1003; assay: Antifungal MIC, CLSI M27-A3 microbroth dilution; type: cell-based, Candida albicans
# Method: (§1) In vitro MIC testing was performed according to the CLSI M27-A3 standard microbroth dilution methodology for the susceptibility testing of yeasts with minor modifications.
# [2] = test system: C. albicans ATCC 10231; assay: Antifungal MIC, CLSI M27-A3 microbroth dilution; type: cell-based, Candida albicans; details: C. albicans ATCC 10231, resistant to FLC, ITC, and VOR
# Method: as §1
# [3] = test system: C. albicans ATCC 1237; assay: Antifungal MIC, CLSI M27-A3 microbroth dilution; type: cell-based, Candida albicans; details: ITC, and VOR
# Method: as §1
# [4] = test system: C. albicans ATCC 2310; assay: Antifungal MIC, CLSI M27-A3 microbroth dilution; type: cell-based, Candida albicans; details: C. albicans ATCC 2310, susceptible to FLC, ITC, and VOR
# Method: as §1
# [5] = test system: C. albicans ATCC 2876; assay: Antifungal MIC, CLSI M27-A3 microbroth dilution; type: cell-based, Candida albicans; details: C. albicans ATCC 2876, susceptible to FLC, ITC, and VOR
# Method: as §1
# [6] = test system: C. albicans ATCC 64124; assay: Antifungal MIC, CLSI M27-A3 microbroth dilution; type: cell-based, Candida albicans; details: C. albicans ATCC 64124, resistant to FLC, ITC, and VOR
# Method: as §1
# [7] = test system: C. albicans ATCC 90819; assay: Antifungal MIC, CLSI M27-A3 microbroth dilution; type: cell-based, Candida albicans; details: C. albicans ATCC 90819, resistant to FLC, ITC, and VOR
# Method: as §1
# [8] = test system: A. baumannii ATCC 19606; assay: Antibacterial MIC, double-dilution method; type: cell-based; details: Acinetobacter baumannii, ATCC19606
# Method: (§2) MIC values were determined against a variety of Gram-positive (strains A-D) and Gram-negative (E-J) bacterial and mycobacterial (K) strains using the double-dilution method, as previously published. Preliminary screening was performed using 500 μM of each compound.
# [9] = test system: B. subtilis 168; assay: Antibacterial MIC, double-dilution method; type: cell-based; details: Bacillus subtilis, strain A, Gram-positive
# Method: as §2
# [10] = test system: E. cloacae ATCC 13047; assay: Antibacterial MIC, double-dilution method; type: cell-based; details: Enterobacter cloacae, ATCC13047
# Method: as §2
# [11] = test system: E. coli MC1061; assay: Antibacterial MIC, double-dilution method; type: cell-based; details: Escherichia coli, strain G, Gram-negative, read-out: MIC
# Method: as §2
# [12] = test system: K. pneumoniae ATCC 27736; assay: Antibacterial MIC, double-dilution method; type: cell-based; details: Klebsiella pneumoniae, ATCC27736
# Method: as §2
# [13] = test system: L. monocytogenes ATCC 19115; assay: Antibacterial MIC, double-dilution method; type: cell-based; details: Listeria monocytogenes, ATCC19115, strain B, Gram-positive, read-out: MIC
# Method: as §2
# [14] = test system: M. smegmatis MC2-155; assay: Antibacterial MIC, double-dilution method; type: cell-based; details: Mycolicibacterium smegmatis, MC2155, strain K, mycobacterial, read-out: MIC
# Method: as §2
# [15] = test system: MRSA; assay: Antibacterial MIC, double-dilution method; type: cell-based; details: Staphylococcus aureus, strain C, Gram-positive, read-out: MIC
# Method: as §2
# [16] = test system: P. aeruginosa ATCC 27853; assay: Antibacterial MIC, double-dilution method; type: cell-based; details: Pseudomonas aeruginosa, ATCC27853
# Method: as §2
# [17] = test system: S. enterica ATCC 14028; assay: Antibacterial MIC, double-dilution method; type: cell-based; details: Salmonella enterica, ATCC14028
# Method: as §2
# [18] = test system: VRE; assay: Antibacterial MIC, double-dilution method; type: cell-based; details: Enterococcus, strain D, Gram-positive, read-out: MIC
# Method: as §2
# [19] = strain E, Gram-negative, range 0.5 to 500 μM, read-out: MIC
# [20] = strain F, Gram-negative, range 0.5 to 500 μM, read-out: MIC
# [21] = strain H, Gram-negative, range 0.5 to 500 μM, read-out: MIC
# [22] = strain I, Gram-negative, range 0.5 to 500 μM, read-out: MIC
# [23] = Candida albicans, ATCC1003, C. albicans ATCC 1003, converted from μg/mL, read-out: MIC
# [24] = Candida albicans, ATCC1003, read-out: MIC
# [25] = Candida albicans, ATCC10231, converted from μg/mL, read-out: MIC
# [26] = Candida albicans, ATCC10231, read-out: MIC
# [27] = Candida albicans, ATCC1237, C. albicans ATCC 1237, resistant to FLC, converted from μg/mL, read-out: MIC
# [28] = Candida albicans, ATCC1237, C. albicans ATCC 1237, resistant to FLC, read-out: MIC
# [29] = Candida albicans, ATCC2310, converted from μg/mL, read-out: MIC
# [30] = Candida albicans, ATCC2310, read-out: MIC
# [31] = Candida albicans, ATCC2876, converted from μg/mL, read-out: MIC
# [32] = Candida albicans, ATCC2876, read-out: MIC
# [33] = Candida albicans, ATCC64124, converted from μg/mL, read-out: MIC
# [34] = Candida albicans, ATCC64124, read-out: MIC
# [35] = Candida albicans, ATCC90819, converted from μg/mL, read-out: MIC
# [36] = Candida albicans, ATCC90819, read-out: MIC
Structure (SMILES),"MIC [8, 19]","MIC [10, 20]",MIC ([11]; converted from μM),MIC ([11]; range 0.5 to 500 μM),"MIC [12, 21]",MIC ([13]; converted from μM),MIC ([13]; range 0.5 to 500 μM),MIC ([14]; converted from μM),MIC ([14]; range 0.5 to 500 μM),"MIC [16, 22]",MIC ([18]; converted from μM),MIC ([18]; range 0.5 to 500 μM),"MIC [1, 23]","MIC [1, 24]","MIC [2, 25]","MIC [2, 26]","MIC [3, 27]","MIC [3, 28]","MIC [4, 29]","MIC [4, 30]",other results
"C[C@@H]1[C@H](O)[C@@H](C)/C=C/C=C/C=C/C=C/C=C/C=C/C=C/[C@H](O[C@@H]2O[C@H](C)[C@@H](O)[C@H](N)[C@@H]2O)C[C@@H]2O[C@](O)(C[C@@H](O)C[C@@H](O)[C@H](O)CC[C@@H](O)C[C@@H](O)CC(=O)O[C@H]1C)C[C@H](O)[C@H]2C(=O)O [AmB, amphotericin B, reference compound]",,,,,,,,,,,,,,,,,,,,,"MIC ([1]; C. albicans ATCC 1003, converted from μg/mL): (4.2) μM; MIC ([1]; C. albicans ATCC 1003, range 0.5 to […]): 3.9 µg/mL; MIC [2]: 3.9 µg/mL; MIC ([2]; converted from μg/mL): (4.2) μM; MIC ([3]; C. albicans ATCC 1237, resistant to FLC): 3.9 µg/mL; MIC ([3]; C. albicans ATCC 1237, resistant to FLC, converted from μg/mL): (4.2) μM; MIC [4]: 3.9 µg/mL; MIC ([4]; converted from μg/mL): (4.2) μM; MIC [5]: 3.9 µg/mL; MIC ([5]; converted from μg/mL): (4.2) μM; MIC [6]: 2.0 to 3.9 µg/mL; MIC ([6]; converted from μg/mL): (2.1-4.2) μM; MIC [7]: 2.0 µg/mL; MIC ([7]; converted from μg/mL): (2.1) μM"
"Cl.Cl.N=C(N)N/N=C/c1ccc(-c2ccc(/C=N/NC(=N)N)cc2)cc1 [Compound 3A, (2E,2′E)-2,2′-([1,1′-Biphenyl]-4,4′-diylbis(methanylylidene))bis(hydrazine-1-carboximidamide) dihydrochloride]",> 500 µM,> 500 µM,> 198 µg/mL,> 500 µM,> 500 µM,0.4 µg/mL,1 µM,> 198 µg/mL,> 500 µM,> 500 µM,0.8 µg/mL,2 µM,19.7 µM,7.8 µg/mL,39.5 µM,15.6 µg/mL,39.5 µM,15.6 µg/mL,> 79.2 µM,> 31.3 µg/mL,"MIC [8]: > 198 µg/mL; MIC ([9]; converted from μM): > 198 µg/mL; MIC ([9]; range 0.5 to 500 μM): > 500 µM; MIC [10]: > 198 µg/mL; MIC [12]: > 198 µg/mL; MIC ([15]; converted from μM): 1.5 µg/mL; MIC ([15]; range 0.5 to 500 μM): 3.9 µM; MIC [16]: > 198 µg/mL; MIC [17]: > 198 µg/mL; MIC ([17]; strain J, Gram-negative, range 0.5 to 500 μM, read-out: MIC): > 500 µM; MIC [5, 31]: 19.7 µM; MIC [5, 32]: 7.8 µg/mL; MIC [6, 33]: > 79.2 µM; MIC [6, 34]: > 31.3 µg/mL; MIC [7, 35]: > 79.2 µM; MIC [7, 36]: > 31.3 µg/mL"
"C/C(=N\NC(=N)N)c1ccc(Oc2ccc(/C(C)=N/NC(=N)N)cc2)cc1.Cl.Cl [Compound 4E, (2E,2′E)-2,2′-((Oxybis(4,1-phenylene))bis(ethan-1-yl-1-ylidene))bis(hydrazine-1 carboximidamide), dihydrochloride]",62.5 µM,250 µM,54.9 µg/mL,125 µM,62.5 µM,27.5 µg/mL,62.5 µM,54.9 to 110 µg/mL,125 to 250 µM,62.5 µM,1.7 µg/mL,3.9 µM,17.8 µM,7.8 µg/mL,17.8 µM,7.8 µg/mL,17.8 µM,7.8 µg/mL,17.8 µM,7.8 µg/mL,"MIC ([8]; strain E, Gram-negative, converted from μM, read-out: MIC): 27.5 µg/mL; MIC ([10]; strain F, Gram-negative, converted from μM, read-out: MIC): 110 µg/mL; MIC ([12]; strain H, Gram-negative, converted from μM, read-out: MIC): 27.5 µg/mL; MIC ([16]; strain I, Gram-negative, converted from μM, read-out: MIC): 27.5 µg/mL; MIC [5, 31]: 8.9 µM; MIC [5, 32]: 3.9 µg/mL; MIC [6, 33]: 17.8 µM; MIC [6, 34]: 7.8 µg/mL; MIC [7, 35]: 17.8 µM; MIC [7, 36]: 7.8 µg/mL"

# Source: US10173968B2, “Bishydrazone-based antifungal agents” (University of Kentucky Research Foundation, priority 2016, dated 2019)
